This test deals with hypoxia-induced pulmonary hypertension in mice. Kind of test: Aerosolized peptide in hypoxia-induced pulmonary hypertension, right ventricular hypertrophy. Format: in vivo, mice (C57BL/6). The procedure: Nebulization was performed using a peptide solution of 5.6 mg of the Nox2ds-tat polypeptide—RKKRRQRRRCSTRIRRQL (SEQ ID NO: 7)—was dissolved in 5 mL of PBS. The polypeptide-containing solution was placed in a nebulization chamber which consisted of a Plexiglas living environment measuring 24×10×9 in. A diffuser was placed in front of the inlet to allow equal distribution of nebulized droplets, and a controlled fan pulled air through the environment
The polypeptide was delivered to mice (C57BL/6, n=2) at an air flow rate of 8 L/minute for 20 minutes per treatment. Treatment was repeated every other day for 21 days.
FIG. 7 (top panel) is a graph showing right ventricular pressure and FIG. 7 (bottom panel) is a graph showing the Fulton's Index for the mice tested. To obtain a Fulton's Index, the heart and lungs are excised and weighed, and the ratio of RV free wall weight over septum plus left ventricular (LV) free wall weight is estimated and used as the index of RV hypertrophy.
Invasive hemodynamics to examine RV function were carried out using pressure-volume loop analysis (Scisence P/V loop hardware, London, Ontario with IOX2 analysis software, EMKA, Falls Church, Va.). Contractility index (dP/dtmax/IP), Powermax/EDV, and ejection fraction as indicators of RV systolic function as well as the time constant of relaxation (Tau) and dP/dtmin as measures of RV relaxation were determined.

Where no end group is shown, it is not given here.

Regarding CSTRVRRQL-NH2 [Nox2ds, CSTRVRRQL], where the note is “hypoxia-induced pulmonary hypertension in mice”, the “right ventricular hypertrophy and RV pressure (in words)” value is recorded as “attenuated”. For the same substance, where the note is “hypoxic mice, n=2, normoxic 0.21±0.01, hypoxic 0.27±0.02, preliminary data”, the “right ventricule/left ventricule+septum ratio (Fulton's Index)” value is on record as 0.22±0.004.

The values above are taken from US9585933B2, “Therapeutic use of peptide inhibitors of NADPH oxidase; aerosolization as a delivery mechanism” (University of Pittsburgh—Of the Commonwealth System of …, priority 2011, dated 2017).
